Measurements taken from patent US8580268B2, “CpG oligonucleotide analogs containing hydrophobic T analogs with enhanced immunostimulatory activity” (Coley Pharmaceutical GmbH, priority 2006, dated 2013).
“Also recorded” adds a separate entry of the source. Strand notation (5' to 3'): a small letter for the sugar, then the base; units joined by * are phosphorothioate-linked, units joined directly phosphodiester-linked; [ ] holds rarer units or linkages, { } end groups; capitals alone tell only the bases. [5IU] = 5-iodo-2'-deoxyuridine; [5EtU] = 5-ethyl-2'-deoxyuridine (EU); d = 2'-deoxy (DNA); m = 2'-O-methyl

Tests used:
human TLR9 = target: T1, human TLR9 (Homo sapiens, UniProt Q9NR96); test: TLR9 luciferase assay (NF-κB reporter) in hTLR9-LUC-293 cells; assay type: cell-based; settings: 16 h, stated in words relative to the comparator ODN
T1 construct: expressed in transfected cells
T1 sequence (Q9NR96 26-1032): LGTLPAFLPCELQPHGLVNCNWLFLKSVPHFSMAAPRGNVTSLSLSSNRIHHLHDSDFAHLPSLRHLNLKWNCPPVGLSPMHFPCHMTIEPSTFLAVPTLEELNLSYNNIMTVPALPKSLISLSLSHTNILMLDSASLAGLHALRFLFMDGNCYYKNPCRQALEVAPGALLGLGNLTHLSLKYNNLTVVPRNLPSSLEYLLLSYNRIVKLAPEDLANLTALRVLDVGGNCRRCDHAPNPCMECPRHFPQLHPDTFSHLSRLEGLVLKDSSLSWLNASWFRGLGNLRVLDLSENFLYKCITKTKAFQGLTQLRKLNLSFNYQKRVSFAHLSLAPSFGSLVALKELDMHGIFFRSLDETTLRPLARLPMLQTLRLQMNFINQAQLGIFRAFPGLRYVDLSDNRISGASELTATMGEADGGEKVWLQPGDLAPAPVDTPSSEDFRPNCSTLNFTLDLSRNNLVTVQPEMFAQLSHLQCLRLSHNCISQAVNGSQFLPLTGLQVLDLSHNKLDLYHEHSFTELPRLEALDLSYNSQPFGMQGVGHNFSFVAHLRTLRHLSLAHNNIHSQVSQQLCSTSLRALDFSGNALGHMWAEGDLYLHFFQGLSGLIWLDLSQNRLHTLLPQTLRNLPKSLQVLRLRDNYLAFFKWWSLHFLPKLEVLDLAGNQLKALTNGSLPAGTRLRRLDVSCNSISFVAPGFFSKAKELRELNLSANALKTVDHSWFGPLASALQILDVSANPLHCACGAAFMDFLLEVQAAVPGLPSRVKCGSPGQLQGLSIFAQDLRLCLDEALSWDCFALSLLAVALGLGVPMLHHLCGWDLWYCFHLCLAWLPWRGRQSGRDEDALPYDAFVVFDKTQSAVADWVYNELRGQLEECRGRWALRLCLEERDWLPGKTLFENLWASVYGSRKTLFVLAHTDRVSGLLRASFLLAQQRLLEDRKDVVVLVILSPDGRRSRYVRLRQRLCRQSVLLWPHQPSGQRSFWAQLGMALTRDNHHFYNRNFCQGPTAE
Description: HEK293 cells were transfected by electroporation with vectors expressing the respective human TLR and a 6xNF-κB-luciferase reporter plasmid. Stable transfectants (3×10^4 cells/well) were incubated indicated amounts of ODN for 16 h at 37° C. in a humidified incubator. Each data point was done in triplicate. Cells were lysed and assayed for luciferase gene activity (using the BriteLite kit from Perkin-Elmer, Zaventem, Belgium). Stimulation indices were calculated in reference to reporter gene activity of medium without addition of ODN.

SaI/N tumor cells = test: Mouse SA1N tumor model; assay type: in vivo; settings: A/J mice
Description: SA1N tumor model: Female A/J mice (10 per group) were injected SC with 5×10^5 SaI/N tumor cells on day 0. Mice were treated with 100 μg ODN or PBS alone given SC once weekly starting on day 8 post tumor induction. Animals were monitored for survival and tumor volume. Tumor size (the length and the width) was measured using a digital vernier caliper. Tumor volume was calculated by using the formula: Tumor volume=(0.4) (ab2), where a=large diameter and b=smaller diameter.
Next the modified P-class ODN were evaluated for their ability to reduce tumor volume mouse SA1N tumor model. Female A/J mice (10 per group) were injected SC with 5×10^5 SaI/N tumor cells on day 0. Mice were treated with 35 μg (FIG. 31a) or 100 μg (FIG. 31b) P-class ODN with a lipophilic substituted nucleotide analog (SEQ ID NO:60, 64, and 67), an unmodified C-class ODN, an unmodified B-class ODN (SEQ ID NO:55), or PBS alone. ODN were given SC once weekly starting on day 8 post tumor induction. Animals were monitored for survival and tumor volume.

human PBMC [1] = test: IL-6 induction in human PBMC (luminex); assay type: cell-based; settings: human PBMC from three donors, 24 h
Description: (§1) Peripheral blood buffy coat preparations from healthy human donors were obtained from the Blood Bank of the University of Düsseldorf (Germany) and PBMC were purified by centrifugation over Ficoll-Hypaque (Sigma). Cells were cultured in a humidified incubator at 37° C. in RPMI 1640 medium supplemented with 5% (v/v) heat inactivated human AB serum (BioWhittaker) or 10% (v/v) heat inactivated FCS, 2 mM L-glutamine, 100 U/ml penicillin and 100 μg/ml streptomycin (all from Sigma).
(§2) PBMC were resuspended at a concentration of 5×10^6 cells/ml and added to 96 well round-bottomed plates […]. PBMC were incubated with ODN and culture supernatants (SN) were collected after the indicated time points. If not used immediately, SN were stored at −20° C. until required.
(§3) Amounts of cytokines in the SN were assessed using an in-house ELISA for IFN-α developed using commercially available antibody (PBL, New Brunswick, N.J., USA) or on the Luminex multiplex system (Luminex Corporation, 12212 Technology Boulevard, Austin, Tex. 78727-6115).
Next the modified P-class ODN were tested for the ability to induce IL-6 in human PBMC. PBMC from three donors were incubated with ODN at concentrations as indicated for 24 h, followed by luminex 25-plex analysis of the supernatants for IL-6. The activity of modified P-class ODN (SEQ ID NO:58, 60-62, FIG. 28a) (SEQ ID NO:64 and 67, FIG. 28b) was compared to that of an unmodified B-class ODN (SEQ ID NO:55), and unmodified C-class ODN (SEQ ID NO:54), a negative control ODN (SEQ ID NO:53), and an unmodified P-class ODN (SEQ ID NO:56).

BALB/c mice = test: In vivo murine IFN-alpha induction after SC injection (ELISA); design: species or system mouse; settings: bled at 3 hr post injection
Description: Female BALB/c mice (6-8 weeks of age) were purchased from Charles River Canada (Quebec, Canada) and housed in micro-isolators in the Animal Care Facility at Coley Pharmaceutical Group Canada. All studies were conducted in accordance with the Animal Care Committee of Coley Canada under the guidance of the Canadian Council on Animal Care. All animals were naïve to CpG ODNs.
In order to determine the effect of the modified P-class ODN in vivo, BALB/c mice (5 per group) were injected SC with differing doses of ODN. Animals were bled at 3 hr post injection and plasma tested for IFN-alpha by ELISA. The activity of modified P-class ODN (SEQ ID NO:58, 60-62, 64, and 67) was compared to that of a B-class negative control (SEQ ID NO:55) and a negative control (SEQ ID NO:26).

human PBMC [2] = test: IFN-alpha production in human PBMC (ELISA); assay type: cell-based
Description: as §1, §2, §3

[3] = 35 μg ODN SC once weekly from day 8
[4] = 100 μg ODN SC once weekly from day 8

Row | Substance | TLR9 stimulation (NF-κB luciferase activity, relative stimulation index) (human TLR9) | reduction in tumor volume (SaI/N tumor cells; [3]) | reduction in tumor volume (SaI/N tumor cells; [4]) | IL-6 induction (human PBMC [1]) | plasma IFN-alpha induction (BALB/c mice) | also measured
1 | EU*C-G*A*C*G*T*C*G*A*T*C*G*G*C*G*C*G*C*G*C*C*G (DNA d[5EtU]*dCdG*dA*dC*dG*dT*dC*dG*dA*dT*dC*dG*dG*dC*dG*dC*dG*dC*dG*dC*dC*dG) [SEQ ID NO:64, EU-modified P-class] | higher degree of TLR9 stimulation than the unmodified P class ODN | greatest reduction in tumor volume | effective in reducing tumor volume |  |  | 
2 | JU*C*G*A*C*G*T*C*G*A*T*C*G*G*C*G*C*G*C*G*C*C*G*T (DNA d[5IU]*dC*dG*dA*dC*dG*dT*dC*dG*dA*dT*dC*dG*dG*dC*dG*dC*dG*dC*dG*dC*dC*dG*dT) [SEQ ID NO:61, JU-modified P-class] |  |  |  | slightly higher activation of IL-6 | slightly higher IFN-alpha induction | 
3 | JU*C*G*T*C*G*A*C*G*A*T*C*G*G*C*G*G*C*C*G*C*C*G*T (DNA d[5IU]*dC*dG*dT*dC*dG*dA*dC*dG*dA*dT*dC*dG*dG*dC*dG*dG*dC*dC*dG*dC*dC*dG*dT) [SEQ ID NO:67, JU-modified fully phosphorothioate P-class] | higher degree of TLR9 stimulation than the unmodified P class ODN | greatest reduction in tumor volume | effective in reducing tumor volume | slightly higher activation of IL-6 |  | 
4 | JU*C-G*A*C*G*T*C*G*A*T*C*G*G*C*G*C*G*C*G*C*C*G (DNA d[5IU]*dCdG*dA*dC*dG*dT*dC*dG*dA*dT*dC*dG*dG*dC*dG*dC*dG*dC*dG*dC*dC*dG) [SEQ ID NO:58, JU-modified P-class] |  |  |  | slightly higher activation of IL-6 | slightly higher IFN-alpha induction | 
5 | JU*C-G*A*C*G*T*C*G*A*T*C*G*G*C*G*C*G*C*G*C*C*G*T (DNA d[5IU]*dCdG*dA*dC*dG*dT*dC*dG*dA*dT*dC*dG*dG*dC*dG*dC*dG*dC*dG*dC*dC*dG*dT) [SEQ ID NO:60, JU-modified P-class] |  | greatest reduction in tumor volume | effective in reducing tumor volume | slightly higher activation of IL-6 | slightly higher IFN-alpha induction | 
6 | JU*C-G*T*C*G*A*C*G*A*T*C*G*G*C*G*G*C*C*G*C*C*G*T (DNA d[5IU]*dCdG*dT*dC*dG*dA*dC*dG*dA*dT*dC*dG*dG*dC*dG*dG*dC*dC*dG*dC*dC*dG*dT) [SEQ ID NO:66, JU-modified P-class with phosphodiester bond in the CG dinucleotide] | higher degree of TLR9 stimulation than the unmodified P class ODN; also recorded: reduced activity compared to the fully phosphorothioate SEQ ID NO:67 |  |  |  |  | IFN-alpha induction (human PBMC [2]; human PBMC incubated 48 hours, ELISA, P-class ODN): reduced activity compared to SEQ ID NO:67
7 | T*G*T*C-G*T*T*T*T*T*T*T*T*T*T*T*T*T*T*T (DNA dT*dG*dT*dCdG*dT*dT*dT*dT*dT*dT*dT*dT*dT*dT*dT*dT*dT*dT*dT) [SEQ ID NO:1, reference compound] |  |  |  |  |  | IFN-alpha production (human PBMC [2]; human PBMC, 24 h, supernatants by ELISA, B-class ODN): virtually inactive
8 | T*mG*JU*C-mG*T*T*T*T*T*T*T*T*T*T*T*T*T*T*T (DNA dT*mG*d[5IU]*dCmG*dT*dT*dT*dT*dT*dT*dT*dT*dT*dT*dT*dT*dT*dT*dT) [SEQ ID NO:113, 2′-O-methyl-modified B-class] | slightly more active |  |  |  |  | 
